# Results reported in patent US20190292577A1, “COMPOSITIONS AND METHOD FOR THE TREATMENT OF ACNE” (ProdermIQ, Inc., priority 2018, published 2019).
# Legend:
# P. acnes = experiment: Skin microbiome profiling, benzoyl peroxide versus no benzoyl peroxide; type: in vivo, Propionibacterium acnes; conditions: benzoyl peroxide applied versus no benzoyl peroxide, FIG. 3
# Text: (§1) Described herein are findings of a study of individuals comprising preadolescent females with acne, and changes in the microbiomes of the individuals with the use of benzoyl peroxide wash. Flora was taken from different areas of the faces of the individuals and studied for sensitivity to benzoyl peroxide. Inclusion criteria of the study for which results are provided herein include: • 1. Minimum of 6 acne lesions present. • 2. No prior use of prescription acne product. • 3. No prior use of over-the-counter benzoyl peroxide anti-acne agent. • 4. Ages: 7-12 • 5. Sex: Female Exclusion criteria of the study for which results are provided herein include: • 1. Significant active skin conditions on the face other than acne vulgaris (may include atopic dermatitis, psoriasis, or others). • 2. Use of oral or parenteral antibiotics within 3 months prior to the study. Sites from which samples were taken along with abbreviations for each include: • RA or RAL: Retroauricular Behind Ear • CH or CHN: Chin • CK or CKN: Cheek • FH or FHN: Forehead • AN or ANN: Ala Nasal [Outside of Nose] • CO or CON: Comedone In some embodiments, the skin microbiome of an individual subject is evaluated. Individual microbiomes vary greatly across subjects and regions of the skin. […] Samples were taken from locations on the heads of the individuals including behind the ear, chin, cheek, forehead, and outside the nose. […]
# S. mitis = experiment: as above; type: in vivo; conditions: benzoyl peroxide applied versus no benzoyl peroxide, FIG. 3
# Text: as §1
# skin microbiome = experiment: Site specific and overall effect of benzoyl peroxide on the skin microbiome; type: in vivo, human
# Text: as §1
# C2 P. acnes strain = experiment: P. acnes strain profiling before and after benzoyl peroxide treatment; type: in vivo, Propionibacterium acnes; conditions: after benzoyl peroxide treatment, FIG. 39
# Method: A group of subjects with P. acnes populations were treated with benzoyl peroxide and divided into 3 cohorts based on the effectiveness of the treatment. Subjects in the “Decrease Cohort” experienced a decrease in P. acnes populations, subjects in the “Increase Cohort” experienced an increase in P. acnes populations, and the “Flat Cohort” experienced non-measureable variance in P. acnes populations. […] Shown is the mean proportion of P. acnes across “Increase”, “Decrease”, and “Flat” cohort. […] The Al P. acnes across is differentiated between “Increase” and “Decrease” cohort. […] The K4 & C3 P. acnes is differentiated between “Increase” and “Decrease” cohort. […] The F4 & D1 P. acnes is differentiated between “Increase” and “Decrease” cohort. […] […] The K4 and A2 P. acnes strains are more prevalent in “Decrease” cohort while the K1 strain is more prevalent in “Increase” cohort.
smiles,measurement,setting,value
O=C(OOC(=O)c1ccccc1)c1ccccc1 [benzoyl peroxide],P. acnes levels within the microbiome,P. acnes,decreased
same,S. mitis relative proportion in the microbiome,S. mitis,increased
same,Skin site impacted the most by benzoyl peroxide,"skin microbiome; among all sites tested, from the site specific prediction models of Table 2",cheek gets impacted the most
same,Impact on overall microbiome diversity,skin microbiome; benzoyl peroxide treatment,does not impact the overall microbiome diversity
same,Prevalence of the C2 P. acnes strain after treatment,C2 P. acnes strain,becomes more prevalent
